# Results from the OligoGym collection.
# Several values for one entry are separate records, joined by “and”; a condition that tells them apart may be missing. Equal values may be shown once. HELM strings list units from the 5' end as sugar, base in round brackets, then linkage (d deoxyribose, r ribose, m 2'-O-methyl, p phosphodiester). Methylation of C is not given here. [moe] = 2'-O-(2-methoxyethyl) (MOE); [cEt] = constrained ethyl (cEt); [sp] = phosphorothioate linkage
# Biological target: HBV
# Settings: ASO
Substance,"target mRNA inhibition (HepG2, 0.07 µM)",further results
RNA1{[moe](A)[sp].[moe](A)[sp].[moe](G)[sp].[moe](C)[sp].[moe](G)[sp].d(A)[sp].d(A)[sp].d(G)[sp].d(T)[sp].d(G)[sp].d(C)[sp].d(A)[sp].d(C)[sp].d(A)[sp].[moe](C)[sp].[moe](G)[sp].[moe](G)}$$$$V2.0,77% and 76%,"target mRNA inhibition (HepG2, 0.0092593 µM): 8%; target mRNA inhibition (HepG2, 0.0277778 µM): 26%; target mRNA inhibition (HepG2, 0.0833333 µM): 62%; target mRNA inhibition (HepG2, 0.25 µM): 85%"
RNA1{[moe](A)[sp].[moe](A)[sp].[moe](G)[sp].d(C)[sp].d(G)[sp].d(A)[sp].d(A)[sp].d(G)[sp].d(T)[sp].d(G)[sp].d(C)[sp].d(A)[sp].[moe](C)[sp].[moe](A)[sp].[moe](C)[sp].[moe](G)[sp].[moe](G)}$$$$V2.0,81% and 73%,
RNA1{[moe](A)[sp].[moe](A)[sp].[moe](G)[sp].d(C)[sp].d(G)[sp].d(A)[sp].d(A)[sp].d(G)[sp].d(T)[sp].d(G)[sp].d(C)[sp].d(A)[sp].d(C)[sp].[cEt](A)[sp].[cEt](C)[sp].[cEt](G)}$$$$V2.0,70% and 63%,
RNA1{[moe](A)[sp].[moe](A)[sp].[moe](T)[sp].[moe](T)[sp].d(T)[sp].d(A)[sp].d(T)[sp].d(G)[sp].d(C)[sp].d(C)[sp].d(T)[sp].d(A)[sp].d(C)[sp].[moe](A)[sp].[moe](G)[sp].[moe](C)}$$$$V2.0,38% and 34%,
RNA1{[moe](A)[sp].[moe](A)[sp].[moe](T)[sp].d(T)[sp].d(T)[sp].d(A)[sp].d(T)[sp].d(G)[sp].d(C)[sp].d(C)[sp].d(T)[sp].d(A)[sp].d(C)[sp].[cEt](A)[sp].[cEt](G)[sp].[cEt](C)}$$$$V2.0,47% and 36%,
RNA1{[moe](A)[sp].[moe](A)[sp].d(C)[sp].d(C)[sp].d(A)[sp].d(C)[sp].d(T)[sp].d(G)[sp].d(A)[sp].d(A)[sp].d(C)[sp].[moe](A)[sp].[moe](A)[sp].[moe](A)[sp].[moe](T)[sp].[moe](G)[sp].[moe](G)}$$$$V2.0,67% and 59%,
RNA1{[moe](A)[sp].[moe](A)[sp].d(C)[sp].d(T)[sp].d(G)[sp].d(G)[sp].d(A)[sp].d(G)[sp].d(C)[sp].d(C)[sp].d(A)[sp].[moe](C)[sp].[moe](C)[sp].[moe](A)[sp].[moe](G)[sp].[moe](C)[sp].[moe](A)}$$$$V2.0,68% and 53%,
RNA1{[moe](A)[sp].[moe](A)[sp].d(T)[sp].d(T)[sp].d(T)[sp].d(A)[sp].d(T)[sp].d(G)[sp].d(C)[sp].d(C)[sp].d(T)[sp].[moe](A)[sp].[moe](C)[sp].[moe](A)[sp].[moe](G)[sp].[moe](C)}$$$$V2.0,27% and 19%,
RNA1{[moe](A)[sp].[moe](C)[sp].[moe](C)[sp].d(A)[sp].d(C)[sp].d(T)[sp].d(G)[sp].d(A)[sp].d(A)[sp].d(C)[sp].d(A)[sp].d(A)[sp].d(A)[sp].[cEt](T)[sp].[cEt](G)[sp].[cEt](G)}$$$$V2.0,65% and 71%,
RNA1{[moe](A)[sp].[moe](C)[sp].[moe](G)[sp].[moe](G)[sp].[moe](G)[sp].d(C)[sp].d(A)[sp].d(A)[sp].d(C)[sp].d(A)[sp].d(T)[sp].d(A)[sp].d(C)[sp].d(C)[sp].[moe](T)[sp].[moe](T)}$$$$V2.0,56% and 46%,
RNA1{[moe](A)[sp].[moe](C)[sp].[moe](G)[sp].d(G)[sp].d(G)[sp].d(C)[sp].d(A)[sp].d(A)[sp].d(C)[sp].d(A)[sp].d(T)[sp].d(A)[sp].[moe](C)[sp].[moe](C)[sp].[moe](T)[sp].[moe](T)[sp].[moe](G)}$$$$V2.0,43% and 34%,
RNA1{[moe](A)[sp].[moe](C)[sp].[moe](G)[sp].d(G)[sp].d(G)[sp].d(C)[sp].d(A)[sp].d(A)[sp].d(C)[sp].d(A)[sp].d(T)[sp].d(A)[sp].[moe](C)[sp].[moe](C)[sp].[moe](T)[sp].[moe](T)}$$$$V2.0,48% and 39%,
RNA1{[moe](A)[sp].[moe](C)[sp].[moe](G)[sp].d(G)[sp].d(G)[sp].d(C)[sp].d(A)[sp].d(A)[sp].d(C)[sp].d(A)[sp].d(T)[sp].d(A)[sp].d(C)[sp].[cEt](C)[sp].[cEt](T)[sp].[cEt](T)}$$$$V2.0,43% and 40%,
RNA1{[moe](A)[sp].[moe](C)[sp].[moe](T)[sp].[moe](A)[sp].[moe](G)[sp].[moe](T)[sp].d(A)[sp].d(A)[sp].d(A)[sp].d(C)[sp].d(T)[sp].d(G)[sp].d(A)[sp].d(G)[sp].d(C)[sp].[moe](C)[sp].[moe](A)}$$$$V2.0,84% and 75%,"target mRNA inhibition (HepG2, 0.0092593 µM): 2%; target mRNA inhibition (HepG2, 0.0277778 µM): 15%; target mRNA inhibition (HepG2, 0.0833333 µM): 38%; target mRNA inhibition (HepG2, 0.25 µM): 75%"
RNA1{[moe](A)[sp].[moe](C)[sp].[moe](T)[sp].[moe](G)[sp].d(G)[sp].d(A)[sp].d(G)[sp].d(C)[sp].d(C)[sp].d(A)[sp].d(C)[sp].d(C)[sp].d(A)[sp].[moe](G)[sp].[moe](C)[sp].[moe](A)[sp].[moe](G)}$$$$V2.0,40% and 41%,
RNA1{[moe](A)[sp].[moe](C)[sp].[moe](T)[sp].d(A)[sp].d(G)[sp].d(T)[sp].d(A)[sp].d(A)[sp].d(A)[sp].d(C)[sp].d(T)[sp].d(G)[sp].[moe](A)[sp].[moe](G)[sp].[moe](C)[sp].[moe](C)[sp].[moe](A)}$$$$V2.0,66% and 67%,

Substance,"target mRNA inhibition (HepG2, 0.07 µM)",further results
RNA1{[moe](A)[sp].[moe](C)[sp].[moe](T)[sp].d(G)[sp].d(G)[sp].d(A)[sp].d(G)[sp].d(C)[sp].d(C)[sp].d(A)[sp].d(C)[sp].d(C)[sp].[moe](A)[sp].[moe](G)[sp].[moe](C)[sp].[moe](A)}$$$$V2.0,53% and 72%,"target mRNA inhibition (HepG2, 0.0092593 µM): 4%; target mRNA inhibition (HepG2, 0.0277778 µM): 23%; target mRNA inhibition (HepG2, 0.0833333 µM): 46%; target mRNA inhibition (HepG2, 0.25 µM): 56%"
RNA1{[moe](A)[sp].[moe](C)[sp].d(C)[sp].d(A)[sp].d(C)[sp].d(T)[sp].d(G)[sp].d(A)[sp].d(A)[sp].d(C)[sp].d(A)[sp].[moe](A)[sp].[moe](A)[sp].[moe](T)[sp].[moe](G)[sp].[moe](G)}$$$$V2.0,43% and 44%,
RNA1{[moe](A)[sp].[moe](C)[sp].d(G)[sp].d(T)[sp].d(G)[sp].d(C)[sp].d(A)[sp].d(G)[sp].d(A)[sp].d(G)[sp].d(G)[sp].[moe](T)[sp].[moe](G)[sp].[moe](A)[sp].[moe](A)[sp].[moe](G)}$$$$V2.0,57% and 44%,
RNA1{[moe](A)[sp].[moe](G)[sp].[moe](A)[sp].[moe](G)[sp].[moe](G)[sp].d(T)[sp].d(G)[sp].d(A)[sp].d(A)[sp].d(G)[sp].d(C)[sp].d(G)[sp].d(A)[sp].d(A)[sp].[moe](G)[sp].[moe](T)[sp].[moe](G)}$$$$V2.0,64% and 55%,
RNA1{[moe](A)[sp].[moe](G)[sp].[moe](A)[sp].[moe](G)[sp].d(G)[sp].d(T)[sp].d(G)[sp].d(A)[sp].d(A)[sp].d(G)[sp].d(C)[sp].d(G)[sp].d(A)[sp].[moe](A)[sp].[moe](G)[sp].[moe](T)[sp].[moe](G)}$$$$V2.0,50% and 47%,
RNA1{[moe](A)[sp].[moe](G)[sp].[moe](A)[sp].d(G)[sp].d(A)[sp].d(A)[sp].d(G)[sp].d(T)[sp].d(C)[sp].d(C)[sp].d(A)[sp].d(C)[sp].[moe](C)[sp].[moe](A)[sp].[moe](C)[sp].[moe](G)[sp].[moe](A)}$$$$V2.0,59% and 56%,
RNA1{[moe](A)[sp].[moe](G)[sp].[moe](A)[sp].d(T)[sp].d(G)[sp].d(A)[sp].d(G)[sp].d(G)[sp].d(C)[sp].d(A)[sp].d(T)[sp].d(A)[sp].[moe](G)[sp].[moe](C)[sp].[moe](A)[sp].[moe](G)[sp].[moe](C)}$$$$V2.0,69% and 63%,
RNA1{[moe](A)[sp].[moe](G)[sp].[moe](C)[sp].[moe](G)[sp].d(A)[sp].d(A)[sp].d(G)[sp].d(T)[sp].d(G)[sp].d(C)[sp].d(A)[sp].d(C)[sp].d(A)[sp].[moe](C)[sp].[moe](G)[sp].[moe](G)}$$$$V2.0,78% and 73%,"target mRNA inhibition (HepG2, 0.0092593 µM): 25%; target mRNA inhibition (HepG2, 0.0277778 µM): 37%; target mRNA inhibition (HepG2, 0.0833333 µM): 73%; target mRNA inhibition (HepG2, 0.25 µM): 87%"
RNA1{[moe](A)[sp].[moe](G)[sp].[moe](G)[sp].[moe](A)[sp].d(G)[sp].d(T)[sp].d(T)[sp].d(C)[sp].d(C)[sp].d(G)[sp].d(C)[sp].d(A)[sp].d(G)[sp].[moe](T)[sp].[moe](A)[sp].[moe](T)[sp].[moe](G)}$$$$V2.0,74% and 50%,
RNA1{[moe](A)[sp].[moe](G)[sp].[moe](G)[sp].[moe](C)[sp].d(A)[sp].d(T)[sp].d(A)[sp].d(G)[sp].d(C)[sp].d(A)[sp].d(G)[sp].d(C)[sp].d(A)[sp].[moe](G)[sp].[moe](G)[sp].[moe](A)[sp].[moe](T)}$$$$V2.0,29% and 31%,
RNA1{[moe](A)[sp].[moe](G)[sp].[moe](G)[sp].[moe](T)[sp].[moe](G)[sp].d(A)[sp].d(A)[sp].d(G)[sp].d(C)[sp].d(G)[sp].d(A)[sp].d(A)[sp].d(G)[sp].d(T)[sp].[moe](G)[sp].[moe](C)[sp].[moe](A)}$$$$V2.0,73% and 56%,
RNA1{[moe](A)[sp].[moe](G)[sp].[moe](G)[sp].[moe](T)[sp].[moe](G)[sp].d(A)[sp].d(A)[sp].d(G)[sp].d(C)[sp].d(G)[sp].d(A)[sp].d(A)[sp].d(G)[sp].d(T)[sp].[moe](G)[sp].[moe](C)}$$$$V2.0,50% and 44%,
RNA1{[moe](A)[sp].[moe](G)[sp].[moe](G)[sp].d(C)[sp].d(A)[sp].d(T)[sp].d(A)[sp].d(G)[sp].d(C)[sp].d(A)[sp].d(G)[sp].d(C)[sp].[moe](A)[sp].[moe](G)[sp].[moe](G)[sp].[moe](A)}$$$$V2.0,54% and 53%,
RNA1{[moe](A)[sp].[moe](G)[sp].[moe](G)[sp].d(T)[sp].d(G)[sp].d(A)[sp].d(A)[sp].d(G)[sp].d(C)[sp].d(G)[sp].d(A)[sp].d(A)[sp].d(G)[sp].[cEt](T)[sp].[cEt](G)[sp].[cEt](C)}$$$$V2.0,73% and 68%,
RNA1{[moe](A)[sp].[moe](G)[sp].[moe](T)[sp].[moe](T)[sp].d(C)[sp].d(C)[sp].d(G)[sp].d(C)[sp].d(A)[sp].d(G)[sp].d(T)[sp].d(A)[sp].d(T)[sp].[moe](G)[sp].[moe](G)[sp].[moe](A)[sp].[moe](T)}$$$$V2.0,43% and 52%,
